According to article PMC6161288, “Bioavailability of Eurycomanone in Its Pure Form and in a Standardised Eurycoma longifolia Water Extract” (Pharmaceutics, 2018):
Like-named read-outs stand apart in the source and are kept apart here.

Legend:
[1] = Pharmacokinetics of eurycomanone (pure compound) in rats (intravenous and oral); assay type: in vivo; settings: male, Wistar, rat, plasma; for AUC(0-t): read-out: AUC0–8
From the text: The ethical approval for the animal experiments conducted in India was granted from the Animal Ethics Committee, Aurigene Discovery Technologies, Bangalore, India. Eight male Wistar rats (12 weeks old; weighing 250–350 g) and eight Caeserean Derived-1 (CD-1) mice (weighing 20–30 g) were obtained from the Animal House, Aurigene Discovery Technologies, Bangalore, India. They were supplied with standard rodent diets and drinking water ad libitum. Each rodent species (i.e., rats and mice) were divided into two groups. One group (n = 3 for each rodent species) was administered with eurycomanone via the intravenous route (IV) and another group (n = 3 for each rodent species) via the oral route (PO) using oral gavage intubation needle. Two animals of each of the species were used as a control and they received reverse osmosis water. All rats underwent jugular vein cannulation surgery 72 h prior to the administration of the eurycomanone.
Eurycomanone (rats: 1.5 mg/mL for IV route and 3.0 mg/mL for PO route; mice: 0.5 mg/mL for IV route and 1.0 mg/mL for PO route) samples were prepared fresh on the day of dosing. For the IV administration, eurycomanone was dissolved in 3% NMP and 97% of 10% HPCD in saline. For the oral administration, eurycomanone was dissolved in 3% NMP and 97% of 30% HPCD in saline. Both samples were sonicated before use. The SWE (5 mg/mL for IV route, 10 mg/mL for PO route) was prepared fresh on the day of dosing. For the IV administration, the SWE was dissolved in reverse osmosis water and filtered (0.2 µm pore size) before administration. The SWE for the PO administration was prepared using the same method, except without filtering. The animals were not fasted and doses given were based on the body weights prior to dosing.
Blood specimens (approximately 0.30–0.40 mL via the jugular vein cannula for rats and 0.10–0.20 mL via submanibular bleeding for mice) were collected at time points 0.083 (IV group only), 0.25, 0.5, 1, 2, 4, 6, and 8 h post-dosing with eurycomanone. At the experiment end point, the animals were euthanized by excess isoflurane inhalation followed by cervical dislocation. In the experiment using SWE, the rats were placed in metabolic cages (Techniplast, West Chester, PA, USA) and blood (approximately 0.30–0.40 mL collected via the jugular vein cannula), urine, and faeces specimens were collected at the same time points with the above plus one additional time point of 24 h. Kidney and liver specimens were collected at necropsy, where the rats were euthanized by CO2 inhalation followed by cervical dislocation. All blood specimens were centrifuged (10,000 rpm, 10 min) to obtain plasma and were stored at −80 °C until processed. Urine and faeces specimens were collected into plastic containers on wet ice while the organ specimens were snap-frozen in liquid nitrogen and maintained at −80 °C until processed.
Plasma specimens (100 µL), collected from the eurycomanone experiment were added with the internal standard solution (10 µL). Plasma proteins were precipitated with ACN (300 µL), vortex-mixed for 5 min, and centrifuged at 4000 rpm for 7 min. The supernatant was collected and evaporated using a nitrogen evaporator for 20 min at 50 °C. Thereafter, they were reconstituted with the mobile phase (500 µL) and transferred into LC-MS vials for analysis.
Eurycomanone detection in the pure eurycomanone experiments was done via the LC-MS/MS system consisting of an Agilent 1260 Infinity HPLC system and an AB SCIEX API 4000™ Triple-Quadrupole mass spectrometer equipped with TurboIonSpray® probe and atmospheric pressure chemical ionization (APCI) (AB Sciex LLC, Framingham, MA, USA). Electrospray ionization (ESI) was performed in positive ion mode. The analytical column was Agilent Zorbax Eclipse-C18 (4.6 mm I.D. × 150 mm, 3.5 µm). The mobile phase consisted of 0.1% formic acid (solvent A) and 90% ACN with 0.1% formic acid (solvent B). […]

[2] = Parallel artificial membrane permeability assay (PAMPA); assay type: in vitro ADME; settings: pH 7.4, 18 h, room temperature, read-out: permeation through artificial membrane (PAMPA)
Method: Eurycomanone was added to Pion buffer (Pion Inc., Billerica, MA, USA) pH 7.4 to make a 10 µM working solution. Five microlitres of the lipid mix was applied on the membrane and allowed to dry for 10 min. The working solution (200 µL) was added to the donor plate and Pion buffer (200 µL) were added to the receiver plate. The plate was kept in a moist chamber and left for 18 h at room temperature. The solution from both the donor and receiver plate and the working solution was analysed using LC-MS/MS. This test was carried out in triplicates using propranolol, atenolol, and carbamazepine as standards. The test concentration for eurycomanone is […].

Plasma stability, monkey = assay type: in vitro ADME; settings: 5 µM, 37 °C, up to 4 h, compared with human, rat and dog plasma
Method: The plasma stability was estimated by preparing 5 µM of eurycomanone in 600 µL plasma in triplicates. The plasma stability of eurycomanone was determined in five types of plasma (mice, rat, dog, monkey, and human). The reaction was kept at 37 °C and ACN (100 µL) was added at timepoints 0, 30 min, and 1, 2, and 4 h to the reaction mixture (100 µL). The supernatant (10,000 rpm, 10 min, 4 °C) was collected and analysed by LC-MS/MS. The standards (propantheline bromide and enalapril) were analysed in triplicates.

[3] = Plasma protein binding (rapid equilibrium dialysis), monkey; assay type: in vitro ADME; settings: pH 7.4, 37 °C, read-out: percentage bound to plasma protein (converted)
Method: The ability of eurycomanone to bind plasma protein was analysed in five types of plasma (mice, rat, dog, monkey, and human). Each type of plasma was spiked with eurycomanone (1 mM) to make the 10 µM test concentration of eurycomanone in the plasma. Equilibrium dialysis buffer (500 µL) at pH 7.4 was added to the right chamber in rapid equilibrium dialysis (RED), while the spiked plasma (300 µL) was added to the left chamber. The Teflon base plate was covered with aluminium foil and left on the shaking incubator at 37 °C for 4 h. The matrix was balanced by mixing 100 µL of the equilibrium buffer with the spiked plasma from the left chamber in RED before adding the stop solution (350 µL) to precipitate out the protein. The supernatant (10,000 rpm, 10 min, 4 °C) was collected and analysed using LC-MS/MS. The standards (propranolol, warfarin, and acebutalol) were analysed in duplicates.

C=C1[C@@H](O)[C@]2(O)OC[C@]34[C@H]2[C@@]2(C)[C@H](O)C(=O)C=C(C)[C@@H]2C[C@H]3OC(=O)[C@H](O)[C@@]14O [Eurycomanone]
AUC(0-t) ([1]; 3 mg/kg intravenous): 970 ng·h/mL | AUC(0-t) ([1]; 30 mg/kg oral): 1150 ng·h/mL | Cmax ([1]; 30 mg/kg oral, read-out: Observed Cmax): 238 ng/mL | half-life ([1]; 3 mg/kg intravenous, read-out: Half-life (t1/2) (converted)): 0.3 h | clearance ([1]; 3 mg/kg intravenous, read-out: Plasma Clearance (CL) (converted)): 45.7 mL/min/kg | Vd ([1]; 3 mg/kg intravenous, read-out: Volume of Distribution at Steady State (Vss)): 0.95 L/kg | bioavailability ([1]; 30 mg/kg oral vs 3 mg/kg intravenous, read-out: Bioavailability (F)): 11.8% | Tmax ([1]; 30 mg/kg oral, read-out: Observed Tmax): 2 h | Papp at 18 h, 25 µM [2]: 0.78 ×10⁻⁶ cm/s | plasma stability (Plasma stability, monkey): slightly lower | fraction unbound at 4 h, 10 µM [3]: 0.646
